Results on six molecules are retold here after patent US20120264685A1 (priority 2009, published 2012).

For data set [1], the system named is RIN5F (Rat Insulinoma) cells. Description: In vitro glucose-dependent insulin secretion (RIN5F cell assay). The note with it: 16.7-mM glucose load, n = 3, mean ± S.D. The format is cell-based. A digest of the protocol: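 Rat RIN5F cells were preincubated 40 min in Krebs-Ringer buffer with 1.1 mM glucose and 0.5% BSA, pH 7.4, then exposed to test peptidomimetics for 30 min at 37 °C with 16.7 mM or 0 mM glucose. Supernatant insulin was measured by rat insulin ELISA and normalised to total protein (BCA), as pg/μg.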

In the next data set the target is DPP IV enzyme (Homo sapiens, UniProt P27487). The data set is described as follows: Stability against DPP IV enzyme. The following applies: 2 μM, 37° C.; for half-life: read-out: half-life (t1/2) with DPP-IV enzyme. The format is in vitro ADME. As to the method: (§1) Different peptidomimetics (final concentration 2 μM) were incubated with either DPP IV (1:25 mU) or pooled human plasma (7.5 μL) or simulated gastric fluid (pH 1.5; composition HCl, NaCl and Pepsin) or simulated intestinal fluid (pH 7.5) or human liver microsomes, for 0, 2, 4, 6, 12 and 24 h (37° C.; 50 mM triethanolamine-HCl buffer; pH 7.8). […] Reactions were terminated by the addition of TFA/H2O ([…], 10% (v/v)). The reaction products were then applied to a Vydac C18 analytical column (4.6×250-mm) and the major degradation fragment separated from intact peptidomimetic. The column was equilibrated with TFA/H20, at a flow rate of 1 mL/min. Using 0.1% (v/v) TFA in 70% acetonitrile/H2O, the concentration of acetonitrile in the eluting solvent was raised from 0% to 28% over 10 min and from 28% to 42% over 30 min. The absorbance was monitored at 206 nm using UV detector and peaks were collected manually prior to ESI-MS analysis. Area under the curve was measured for test peptidomimetics and their metabolites and percentage degradation were calculated at each time point over a period of 24 h.

The nature of data set [2]: Stability in simulated gastric fluid. The following applies: 2 μM, 37° C.; for % degradation in 24 h when incubated with simulated gastric fluid: pH 1.5, 24 h; for half-life: simulated gi fluid, read-out: half-life (t1/2) in simulated gastric fluid; for half-life / half-life (t1/2) in simulated gastric fluid: pH 1.5. In kind it is in vitro ADME. As to the method:
(§2) Reactions were terminated by the addition of TFA/H2O ([…], 10% (v/v)). […] The column was equilibrated with TFA/H20, at a flow rate of 1 mL/min. […] The absorbance was monitored at 206 nm using UV detector and peaks were collected manually prior to ESI-MS analysis.

Data set [3] can be described thus: Stability in liver microsomes. The note with it: 2 μM, 37° C.; for half-life: human, microsomes, read-out: half-life (t1/2) in liver microsomes. In kind it is in vitro ADME, human. As to the method: as §2
Data set [4] is described as follows: Stability in human plasma. The format is in vitro ADME. The note with it: 2 μM, 37° C.; for half-life: human, plasma, read-out: half-life (t1/2) in human plasma. As for the experimental part: as §1
Data set [5] in a line: Stability in simulated intestinal fluid. The format is in vitro ADME. The following applies: 2 μM, 37° C.; for % degradation in 24 h when incubated with simulated intestinal fluid: pH 7.5, 24 h; for half-life: simulated gi fluid, read-out: half-life (t1/2) in simulated intestinal fluid; for half-life / half-life (t1/2) in simulated intestinal fluid: pH 7.5. As for the experimental part:
as §2

Where a SMILES comes first, the peptide text is derived from it. [ ]: non-standard residue; d: D form. ξ: configuration not given here. ξαMeBip(2'-Et,4'-OMe) = CCc1cc(OC)ccc1-c1ccc(CC(C)(N)C(=O)O)cc1; ξBip(2'-Et-4'-OMe) = CCc1cc(OC)ccc1-c1ccc(CC(N)C(=O)O)cc1; ξαMePhe(2,6-F2) = CC(N)(Cc1c(F)cccc1F)C(=O)O; ξαMe(hhPhe) = CC(N)(CCCc1ccccc1)C(=O)O; ξαMePhe(2-F) = CC(N)(Cc1ccccc1F)C(=O)O; ξhhPhe = NC(CCCc1ccccc1)C(=O)O; ξαMeD = CC(N)(CC(=O)O)C(=O)O; ξαMeS = CC(N)(CO)C(=O)O; Aib = CC(C)(N)C(=O)O

Sequence of DPP IV enzyme (P27487 whole entry, species assumed, the tested form may be a part): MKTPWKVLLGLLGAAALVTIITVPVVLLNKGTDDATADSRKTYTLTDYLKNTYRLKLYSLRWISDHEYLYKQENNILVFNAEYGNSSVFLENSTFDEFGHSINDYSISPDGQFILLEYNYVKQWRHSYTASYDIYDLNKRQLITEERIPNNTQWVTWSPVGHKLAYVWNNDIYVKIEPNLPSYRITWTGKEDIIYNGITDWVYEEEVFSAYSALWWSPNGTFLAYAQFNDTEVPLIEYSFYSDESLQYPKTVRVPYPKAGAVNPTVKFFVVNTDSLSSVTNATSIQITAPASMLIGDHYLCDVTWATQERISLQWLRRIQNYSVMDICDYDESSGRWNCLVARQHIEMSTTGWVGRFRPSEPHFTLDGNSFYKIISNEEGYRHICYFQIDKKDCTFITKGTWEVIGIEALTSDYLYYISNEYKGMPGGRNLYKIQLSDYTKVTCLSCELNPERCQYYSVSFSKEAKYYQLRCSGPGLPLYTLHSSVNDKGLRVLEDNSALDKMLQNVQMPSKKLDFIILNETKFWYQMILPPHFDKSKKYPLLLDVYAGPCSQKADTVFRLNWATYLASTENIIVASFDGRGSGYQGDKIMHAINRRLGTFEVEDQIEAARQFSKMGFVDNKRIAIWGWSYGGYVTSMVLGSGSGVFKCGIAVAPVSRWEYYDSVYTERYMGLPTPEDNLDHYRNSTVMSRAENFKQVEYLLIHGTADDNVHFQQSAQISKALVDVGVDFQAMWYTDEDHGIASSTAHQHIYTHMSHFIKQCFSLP

As to `CCc1cc(OC)ccc1-c1ccc(CC(C)(NC(=O)[C@H](CC(=O)O)NC(=O)C(C)(CO)NC(=O)[C@@H](NC(=O)C(C)(Cc2c(F)cccc2F)NC(=O)[C@@H](NC(=O)CNC(=O)[C@H](CCC(N)=O)NC(=O)[C@H](C)NC(=O)[C@H](Cc2c[nH]cn2)NC(=O)[C@@H](N)C(C)C)[C@@H](C)O)[C@@H](C)O)C(=O)NC(CCCc2ccccc2)C(N)=O)cc1` (some centres unmarked) [compound 50] (H-VHAQGT[ξαMePhe(2,6-F2)]T[ξαMeS]D[ξαMeBip(2'-Et,4'-OMe)][ξhhPhe]-NH2), the “Insulin secretion” value in data set [1] (0.1 nM test compd.) is 12.9 ± 0.14 pg/µg/h. Further, in data set [1] (1 nM test compd.), the “Insulin secretion” value came out at 15.8 ± 0.13 pg/µg/h. Besides, in data set [1] (10 nM test compd.), the “Insulin secretion” value was 29.9 ± 0.15 pg/µg/h. Besides, the “% degradation in 24 h when incubated with DPP-IV enzyme” value (shortened to “% degradation … with DPP-IV enzyme”) at DPP IV enzyme stood at 75%. Also, in data set [2], the “% degradation in 24 h when incubated with simulated gastric fluid” value (“% degradation … with simulated gastric fluid” below) is 100% and the half-life was 0.5 h. In data set [3], the “% degradation in 24 h when incubated with liver microsomes” value (“% degradation … with liver microsomes” below) amounted to 100% and the half-life was 0.5 h. For the same molecule, in data set [4], the “half-life (t1/2) in human plasma” value is listed as “(9) h” and the “% degradation in 24 h when incubated with human plasma” value (“% degradation … with human plasma” for short) came to 77%. In data set [5], the “% degradation in 24 h when incubated with simulated intestinal fluid” value (from here on “% degradation … with simulated intestinal fluid”) was 100% and the half-life was 0.5 h.
In the case of `CCc1cc(OC)ccc1-c1ccc(CC(C)(NC(=O)C(C)(CC(=O)O)NC(=O)[C@H](CO)NC(=O)[C@@H](NC(=O)[C@H](Cc2ccccc2)NC(=O)[C@@H](NC(=O)CNC(=O)[C@H](CCC(N)=O)NC(=O)[C@H](C)NC(=O)[C@H](Cc2c[nH]cn2)NC(=O)[C@@H](N)C(C)C)[C@@H](C)O)[C@@H](C)O)C(=O)NC(CCCc2ccccc2)C(N)=O)cc1` (some centres unmarked) [compound 58] (H-VHAQGTFTS[ξαMeD][ξαMeBip(2'-Et,4'-OMe)][ξhhPhe]-NH2), the “Insulin secretion” value in data set [1] (0.1 nM test compd.) was 16.1 ± 0.22 pg/µg/h. The “Insulin secretion” value in data set [1] (1 nM test compd.) turned out to be 22.1 ± 0.26 pg/µg/h. Moreover, the “Insulin secretion” value in data set [1] (10 nM test compd.) came to 36.0 ± 0.36 pg/µg/h. At DPP IV enzyme, the “% degradation … with DPP-IV enzyme” value is 71% and the half-life was 8 h. In data set [2], the “% degradation … with simulated gastric fluid” value was 11% and the half-life was 7 h. In data set [3], the “% degradation … with liver microsomes” value is recorded as 77% and the half-life is 2 h. Moreover, in data set [4], the “% degradation … with human plasma” value was determined as 69% and the half-life was 8 h. Besides, in data set [5], the “half-life (t1/2) in simulated intestinal fluid” value is listed as “(6) h” and the “% degradation … with simulated intestinal fluid” value is on record as 43%.
In the case of `CCc1cc(OC)ccc1-c1ccc(CC(C)(NC(=O)C(C)(CC(=O)O)NC(=O)[C@H](CO)NC(=O)[C@@H](NC(=O)[C@H](Cc2ccccc2)NC(=O)[C@@H](NC(=O)CNC(=O)[C@H](CCC(=O)O)NC(=O)[C@H](C)NC(=O)[C@H](Cc2c[nH]cn2)NC(=O)[C@@H](N)C(C)C)[C@@H](C)O)[C@@H](C)O)C(=O)NC(CCCc2ccccc2)C(N)=O)cc1` (some centres unmarked) [compound 62] (H-VHAEGTFTS[ξαMeD][ξαMeBip(2'-Et,4'-OMe)][ξhhPhe]-NH2), the “Insulin secretion” value in data set [1] (0.1 nM test compd.) was 16.6 ± 0.41 pg/µg/h. Further, the “Insulin secretion” value in data set [1] (1 nM test compd.) was 22.9 ± 0.32 pg/µg/h. In data set [1] (10 nM test compd.), the “Insulin secretion” value was 36.7 ± 0.11 pg/µg/h. For the same molecule, on DPP IV enzyme, the “% degradation … with DPP-IV enzyme” value stood at 00% and the half-life is greater than 24 h. In data set [2], the “% degradation … with simulated gastric fluid” value was 00% and the half-life was greater than 24 h. In data set [3], the “half-life (t1/2) in liver microsomes” value is given as “(5) h” and the “% degradation … with liver microsomes” value stood at 35%. For the same molecule, in data set [4], the “% degradation … with human plasma” value is 00% and the half-life was greater than 24 h. In addition, in data set [5], the “% degradation … with simulated intestinal fluid” value was 00% and the half-life is greater than 24 h.
With `CCc1cc(OC)ccc1-c1ccc(CC(C)(NC(=O)C(C)(CC(=O)O)NC(=O)[C@H](CO)NC(=O)[C@@H](NC(=O)C(C)(Cc2ccccc2F)NC(=O)[C@@H](NC(=O)CNC(=O)[C@H](CCC(=O)O)NC(=O)[C@H](CO)NC(=O)[C@H](Cc2c[nH]cn2)NC(=O)[C@@H](N)C(C)C)[C@@H](C)O)[C@@H](C)O)C(=O)NC(CCCc2ccccc2)C(N)=O)cc1` (some centres unmarked) [compound 69] (H-VHSEGT[ξαMePhe(2-F)]TS[ξαMeD][ξαMeBip(2'-Et,4'-OMe)][ξhhPhe]-NH2), the “Insulin secretion” value in data set [1] (0.1 nM test compd.) was found to be 16.2 ± 0.13 pg/µg/h. Moreover, the “Insulin secretion” value in data set [1] (1 nM test compd.) stood at 22.4 ± 0.19 pg/µg/h. Besides, the “Insulin secretion” value in data set [1] (10 nM test compd.) is 36.2 ± 0.09 pg/µg/h. On DPP IV enzyme, the “% degradation … with DPP-IV enzyme” value was 76% and the half-life was 9 h. Besides, in data set [2], the “half-life (t1/2) in simulated gastric fluid” value was “(8) h” and the “% degradation … with simulated gastric fluid” value is 14%. Also, in data set [3], the “% degradation … with liver microsomes” value is reported as 80% and the half-life is 1 h. For the same molecule, in data set [4], the “% degradation … with human plasma” value was determined as 78% and the half-life turned out to be 8 h. In addition, in data set [5], the “half-life (t1/2) in simulated intestinal fluid” value is “(6) h” and the “% degradation … with simulated intestinal fluid” value was 43%.
As to `CCc1cc(OC)ccc1-c1ccc(CC(C)(NC(=O)C(C)(CC(=O)O)NC(=O)[C@H](CO)NC(=O)[C@@H](NC(=O)C(C)(Cc2c(F)cccc2F)NC(=O)[C@@H](NC(=O)CNC(=O)[C@H](CCC(N)=O)NC(=O)C(C)(C)NC(=O)[C@H](Cc2c[nH]cn2)NC(=O)[C@@H](N)C(C)C)[C@@H](C)O)[C@@H](C)O)C(=O)NC(CCCc2ccccc2)C(N)=O)cc1` (some centres unmarked) [compound 75] (H-VH[Aib]QGT[ξαMePhe(2,6-F2)]TS[ξαMeD][ξαMeBip(2'-Et,4'-OMe)][ξhhPhe]-NH2), the “Insulin secretion” value in data set [1] (0.1 nM test compd.) was 16.4 ± 0.12 pg/µg/h. In data set [1] (1 nM test compd.), the “Insulin secretion” value turned out to be 22.7 ± 0.17 pg/µg/h. In addition, the “Insulin secretion” value in data set [1] (10 nM test compd.) came to 36.6 ± 0.05 pg/µg/h. Also, on DPP IV enzyme, the “% degradation … with DPP-IV enzyme” value was 74% and the half-life is 9 h. In data set [2], the “half-life (t1/2) in simulated gastric fluid” value is “(8) h” and the “% degradation … with simulated gastric fluid” value is recorded as 12%. In data set [3], the “% degradation … with liver microsomes” value came out at 83% and the half-life turned out to be 1 h. In data set [4], the “% degradation … with human plasma” value is recorded as 75% and the half-life was 8 h. In data set [5], the “half-life (t1/2) in simulated intestinal fluid” value is on record as “(6) h” and the “% degradation … with simulated intestinal fluid” value is given as 46%.
Take `CCc1cc(OC)ccc1-c1ccc(CC(NC(=O)[C@H](CC(=O)O)NC(=O)[C@H](CO)NC(=O)[C@@H](NC(=O)[C@H](Cc2ccccc2)NC(=O)[C@@H](NC(=O)CNC(=O)[C@H](CCC(N)=O)NC(=O)[C@H](CO)NC(=O)[C@H](Cc2c[nH]cn2)NC(=O)[C@@H](N)C(C)C)[C@@H](C)O)[C@@H](C)O)C(=O)NC(C)(CCCc2ccccc2)C(N)=O)cc1` (some centres unmarked) [compound 81] (H-VHSQGTFTSD[ξBip(2'-Et-4'-OMe)][ξαMe(hhPhe)]-NH2): the “Insulin secretion” value in data set [1] (0.1 nM test compd.) stood at 16.8 ± 0.20 pg/µg/h. Also, the “Insulin secretion” value in data set [1] (1 nM test compd.) was 22.7 ± 0.29 pg/µg/h. In addition, the “Insulin secretion” value in data set [1] (10 nM test compd.) worked out at 36.6 ± 0.31 pg/µg/h. Further, on DPP IV enzyme, the “% degradation … with DPP-IV enzyme” value was found to be 70% and the half-life turned out to be 9 h. In addition, in data set [2], the “half-life (t1/2) in simulated gastric fluid” value is given as “(8) h” and the “% degradation … with simulated gastric fluid” value was 14%. In data set [3], the “% degradation … with liver microsomes” value turned out to be 78% and the half-life came to 1 h. In data set [4], the “% degradation … with human plasma” value was found to be 71% and the half-life was determined as 8 h. In data set [5], the “half-life (t1/2) in simulated intestinal fluid” value is “(6) h” and the “% degradation … with simulated intestinal fluid” value is on record as 40%.
